Source: ChEMBL document CHEMBL5465560, “Selectivity Literature for EUbOPEN Chemogenomic Library” (2024)

Assays:
[1] = test system: Epidermal growth factor receptor (Homo sapiens), P00533 [UNDEFINED MUTATION]; experiment: Selectivity interaction (ProQinase) EUB0000171b EGFR; settings: at 1 µM
[2] = target: 5'-AMP-activated protein kinase catalytic subunit alpha-2 (Homo sapiens) (UniProt P54646); experiment: Selectivity interaction (Kinase panel (KiNativ target engagement assay in Jurkat cells)) EUB0001635a PRKAA2; format: cell-based; settings: at 1 µM
Sequence of 5'-AMP-activated protein kinase catalytic subunit alpha-2 (Homo sapiens) (P54646 whole entry, looked up): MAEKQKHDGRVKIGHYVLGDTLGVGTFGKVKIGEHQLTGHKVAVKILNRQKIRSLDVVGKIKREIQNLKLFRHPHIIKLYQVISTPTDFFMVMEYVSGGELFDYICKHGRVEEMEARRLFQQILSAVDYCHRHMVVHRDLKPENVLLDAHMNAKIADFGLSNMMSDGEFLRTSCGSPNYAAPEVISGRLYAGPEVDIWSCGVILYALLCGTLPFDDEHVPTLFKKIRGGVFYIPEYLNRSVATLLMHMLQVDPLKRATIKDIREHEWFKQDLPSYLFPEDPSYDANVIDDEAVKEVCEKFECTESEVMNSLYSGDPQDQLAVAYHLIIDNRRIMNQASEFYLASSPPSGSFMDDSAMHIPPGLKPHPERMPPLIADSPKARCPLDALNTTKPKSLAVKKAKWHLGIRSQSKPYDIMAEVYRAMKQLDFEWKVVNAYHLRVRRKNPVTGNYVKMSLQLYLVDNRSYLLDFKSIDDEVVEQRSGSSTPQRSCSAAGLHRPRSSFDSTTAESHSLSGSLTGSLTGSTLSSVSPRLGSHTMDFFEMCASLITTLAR

[3] = target: Serine/threonine-protein kinase PAK 6 (Homo sapiens) (UniProt Q9NQU5); experiment: Selectivity interaction (KinomeScan (DiscoverX)) EUB0000666a PAK6; settings: at 10 µM
Sequence of Serine/threonine-protein kinase PAK 6 (Homo sapiens) (Q9NQU5 whole entry, looked up): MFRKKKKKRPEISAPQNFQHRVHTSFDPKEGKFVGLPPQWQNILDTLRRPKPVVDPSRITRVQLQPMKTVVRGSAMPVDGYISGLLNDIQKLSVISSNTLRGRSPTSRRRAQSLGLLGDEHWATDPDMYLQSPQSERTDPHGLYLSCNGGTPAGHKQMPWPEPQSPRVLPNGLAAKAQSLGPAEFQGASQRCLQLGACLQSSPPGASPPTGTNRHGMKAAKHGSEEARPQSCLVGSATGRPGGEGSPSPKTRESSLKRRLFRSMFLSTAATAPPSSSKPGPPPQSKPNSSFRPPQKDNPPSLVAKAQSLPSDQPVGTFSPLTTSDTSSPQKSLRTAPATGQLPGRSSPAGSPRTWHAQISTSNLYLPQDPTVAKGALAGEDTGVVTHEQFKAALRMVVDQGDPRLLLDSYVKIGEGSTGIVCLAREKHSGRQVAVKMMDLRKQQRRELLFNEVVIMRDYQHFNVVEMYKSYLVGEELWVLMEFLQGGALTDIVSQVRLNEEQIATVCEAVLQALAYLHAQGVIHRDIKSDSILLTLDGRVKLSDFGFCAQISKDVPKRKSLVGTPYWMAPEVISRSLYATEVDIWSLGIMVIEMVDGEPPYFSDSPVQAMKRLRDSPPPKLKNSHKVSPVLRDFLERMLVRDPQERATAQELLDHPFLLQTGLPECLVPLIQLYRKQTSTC

[4] = target: Serine/threonine-protein kinase N1 (Homo sapiens, UniProt Q16512); experiment: Selectivity interaction (ActivX KiNativ screen (kinase selectivity in THP-1 cell lysates)) EUB0000639a PKN1; format: subcellular; settings: lysate, at 0.04 µM
Sequence of Serine/threonine-protein kinase N1 (Q16512 2-942 limits assumed): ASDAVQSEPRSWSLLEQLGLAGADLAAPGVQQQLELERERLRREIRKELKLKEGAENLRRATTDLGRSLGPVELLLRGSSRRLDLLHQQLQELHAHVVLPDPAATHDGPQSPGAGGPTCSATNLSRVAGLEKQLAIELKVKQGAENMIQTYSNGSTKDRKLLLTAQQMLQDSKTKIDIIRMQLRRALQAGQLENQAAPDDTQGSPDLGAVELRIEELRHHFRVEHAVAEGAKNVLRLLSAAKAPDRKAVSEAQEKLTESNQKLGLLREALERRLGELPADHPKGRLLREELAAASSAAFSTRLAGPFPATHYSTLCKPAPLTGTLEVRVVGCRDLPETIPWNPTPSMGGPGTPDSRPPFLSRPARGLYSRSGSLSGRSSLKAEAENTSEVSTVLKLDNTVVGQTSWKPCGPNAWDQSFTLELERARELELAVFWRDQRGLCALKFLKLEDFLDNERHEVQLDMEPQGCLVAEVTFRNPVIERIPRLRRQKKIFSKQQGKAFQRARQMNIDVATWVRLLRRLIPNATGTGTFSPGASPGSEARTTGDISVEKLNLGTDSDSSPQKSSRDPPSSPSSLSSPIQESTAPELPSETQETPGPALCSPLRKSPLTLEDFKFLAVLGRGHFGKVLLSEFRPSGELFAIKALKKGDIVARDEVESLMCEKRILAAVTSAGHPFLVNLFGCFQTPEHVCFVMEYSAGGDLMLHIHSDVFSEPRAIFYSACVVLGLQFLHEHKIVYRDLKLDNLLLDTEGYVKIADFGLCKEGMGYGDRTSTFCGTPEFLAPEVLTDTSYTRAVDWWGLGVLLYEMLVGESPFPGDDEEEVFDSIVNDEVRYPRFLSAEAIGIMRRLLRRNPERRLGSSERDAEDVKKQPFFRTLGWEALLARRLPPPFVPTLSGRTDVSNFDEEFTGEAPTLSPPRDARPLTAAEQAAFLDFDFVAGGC

[5] = target: T1, Serine/threonine-protein kinase LATS1 (Homo sapiens) (UniProt O95835); experiment: Selectivity interaction (KinomeScan (DiscoverX)) EUB0000695a LATS1; settings: at 100 nM
T1 sequence (whole entry): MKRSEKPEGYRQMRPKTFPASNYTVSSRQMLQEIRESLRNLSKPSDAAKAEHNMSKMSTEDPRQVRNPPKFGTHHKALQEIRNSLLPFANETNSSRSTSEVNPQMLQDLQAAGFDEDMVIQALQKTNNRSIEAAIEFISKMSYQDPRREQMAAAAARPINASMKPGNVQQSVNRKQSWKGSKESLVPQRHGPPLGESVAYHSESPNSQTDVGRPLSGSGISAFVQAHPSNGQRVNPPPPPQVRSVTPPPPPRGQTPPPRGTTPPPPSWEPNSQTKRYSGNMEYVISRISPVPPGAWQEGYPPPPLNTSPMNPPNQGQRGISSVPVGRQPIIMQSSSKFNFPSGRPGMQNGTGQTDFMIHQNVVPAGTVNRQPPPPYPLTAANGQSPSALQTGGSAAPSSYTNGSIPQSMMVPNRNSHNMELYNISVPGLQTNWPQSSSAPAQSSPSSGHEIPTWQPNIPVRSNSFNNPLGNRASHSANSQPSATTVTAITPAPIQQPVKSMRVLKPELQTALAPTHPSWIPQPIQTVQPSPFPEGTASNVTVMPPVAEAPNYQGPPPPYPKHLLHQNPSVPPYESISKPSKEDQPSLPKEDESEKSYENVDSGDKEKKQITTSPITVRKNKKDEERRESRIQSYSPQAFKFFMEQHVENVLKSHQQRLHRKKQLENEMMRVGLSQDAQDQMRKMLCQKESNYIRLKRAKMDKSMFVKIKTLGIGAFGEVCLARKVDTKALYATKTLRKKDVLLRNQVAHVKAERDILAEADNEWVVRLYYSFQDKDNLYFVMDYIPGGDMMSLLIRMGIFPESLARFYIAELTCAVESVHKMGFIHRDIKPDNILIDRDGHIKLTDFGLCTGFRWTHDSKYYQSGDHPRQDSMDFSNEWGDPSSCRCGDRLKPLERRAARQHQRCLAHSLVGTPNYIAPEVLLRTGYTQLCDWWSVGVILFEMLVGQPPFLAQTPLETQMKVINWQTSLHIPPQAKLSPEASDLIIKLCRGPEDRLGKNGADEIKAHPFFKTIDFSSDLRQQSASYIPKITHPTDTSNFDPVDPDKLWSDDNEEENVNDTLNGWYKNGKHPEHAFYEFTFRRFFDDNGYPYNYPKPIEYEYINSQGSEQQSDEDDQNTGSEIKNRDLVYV

[6] = target: T2, Mitogen-activated protein kinase kinase kinase kinase 3 (Homo sapiens) (UniProt Q8IVH8); experiment: Selectivity interaction (KinomeScan (DiscoverX)) EUB0000045b MAP4K3
T2 sequence (whole entry): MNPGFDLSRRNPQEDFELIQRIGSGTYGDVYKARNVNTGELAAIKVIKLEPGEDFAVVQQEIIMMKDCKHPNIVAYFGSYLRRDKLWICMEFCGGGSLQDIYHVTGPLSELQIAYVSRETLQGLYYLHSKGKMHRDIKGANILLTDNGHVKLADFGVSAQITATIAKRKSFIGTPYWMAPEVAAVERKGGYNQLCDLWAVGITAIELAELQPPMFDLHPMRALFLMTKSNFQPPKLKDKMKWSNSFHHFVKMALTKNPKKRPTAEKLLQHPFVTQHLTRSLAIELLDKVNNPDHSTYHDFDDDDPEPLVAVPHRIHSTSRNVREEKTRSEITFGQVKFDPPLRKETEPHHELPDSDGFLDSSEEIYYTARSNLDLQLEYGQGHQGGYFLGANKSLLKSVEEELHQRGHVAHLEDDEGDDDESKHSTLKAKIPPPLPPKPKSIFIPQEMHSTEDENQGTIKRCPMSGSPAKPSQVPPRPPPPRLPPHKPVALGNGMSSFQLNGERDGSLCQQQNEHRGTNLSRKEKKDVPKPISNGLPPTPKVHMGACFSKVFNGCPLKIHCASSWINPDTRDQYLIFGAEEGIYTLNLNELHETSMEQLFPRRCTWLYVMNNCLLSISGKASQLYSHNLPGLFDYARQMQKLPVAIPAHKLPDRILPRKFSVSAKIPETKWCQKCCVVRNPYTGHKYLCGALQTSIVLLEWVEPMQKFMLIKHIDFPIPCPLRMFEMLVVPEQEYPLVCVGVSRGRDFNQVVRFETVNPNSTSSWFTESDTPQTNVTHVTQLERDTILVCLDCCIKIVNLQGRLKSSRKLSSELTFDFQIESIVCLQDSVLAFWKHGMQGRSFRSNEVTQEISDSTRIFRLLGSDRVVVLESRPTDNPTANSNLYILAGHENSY

Sequence of Epidermal growth factor receptor (Homo sapiens), P00533 [UNDEFINED MUTATION] (P00533 whole entry, looked up, change not shown): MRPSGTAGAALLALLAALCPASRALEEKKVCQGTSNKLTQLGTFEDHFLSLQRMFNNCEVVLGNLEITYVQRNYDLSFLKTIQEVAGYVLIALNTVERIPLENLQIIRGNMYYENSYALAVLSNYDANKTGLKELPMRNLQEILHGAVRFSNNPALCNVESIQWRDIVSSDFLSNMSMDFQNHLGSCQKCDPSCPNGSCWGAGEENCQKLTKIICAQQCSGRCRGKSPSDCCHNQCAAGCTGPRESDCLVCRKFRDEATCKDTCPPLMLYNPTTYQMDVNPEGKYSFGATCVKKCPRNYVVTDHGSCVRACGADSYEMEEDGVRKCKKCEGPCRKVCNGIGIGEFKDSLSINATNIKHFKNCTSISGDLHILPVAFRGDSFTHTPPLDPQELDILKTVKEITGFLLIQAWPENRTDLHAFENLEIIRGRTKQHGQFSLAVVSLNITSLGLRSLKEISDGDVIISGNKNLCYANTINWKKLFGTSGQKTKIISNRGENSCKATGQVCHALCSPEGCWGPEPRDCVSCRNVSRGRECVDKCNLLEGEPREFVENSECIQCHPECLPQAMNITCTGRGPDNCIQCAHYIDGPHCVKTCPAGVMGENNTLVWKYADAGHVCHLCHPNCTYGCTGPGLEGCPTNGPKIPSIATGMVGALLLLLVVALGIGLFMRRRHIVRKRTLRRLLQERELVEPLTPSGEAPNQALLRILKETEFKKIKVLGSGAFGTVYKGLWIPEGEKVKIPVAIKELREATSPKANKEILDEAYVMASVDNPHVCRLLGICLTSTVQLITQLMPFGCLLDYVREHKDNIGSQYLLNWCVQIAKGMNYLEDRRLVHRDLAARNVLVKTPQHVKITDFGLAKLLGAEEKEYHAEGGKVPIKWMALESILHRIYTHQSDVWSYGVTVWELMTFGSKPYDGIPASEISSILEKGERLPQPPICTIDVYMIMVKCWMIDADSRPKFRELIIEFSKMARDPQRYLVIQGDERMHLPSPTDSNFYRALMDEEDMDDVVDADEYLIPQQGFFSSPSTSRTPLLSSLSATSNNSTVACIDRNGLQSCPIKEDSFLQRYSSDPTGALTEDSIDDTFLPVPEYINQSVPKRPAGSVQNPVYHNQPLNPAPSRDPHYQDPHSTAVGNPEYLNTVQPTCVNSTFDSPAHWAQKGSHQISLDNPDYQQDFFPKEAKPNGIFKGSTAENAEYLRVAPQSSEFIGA

**Q.** How did the % of control [1] turn out when `C=CC(=O)Nc1cccc(C(=O)Nc2ccc(Nc3cc(-c4[nH]c(SC)nc4C)ccn3)cc2)c1` was run?
**A.** 101%

**Q.** `C=CC(=O)Nc1ccc(C(=O)Nc2[nH]nc3c2CN(C(=O)N[C@H](CN(C)C)c2ccccc2)C3(C)C)cc1` was tested. Which % of engagement [2] did it give?
**A.** 53.5%

**Q.** With `O=C(NOC[C@H](O)CO)c1ccc(F)c(F)c1Nc1ccc(I)cc1F` as the compound, how does the % of control [3] read?
**A.** 94%

**Q.** For `CC[C@@H]1[C@H](F)C(=O)N[C@@H]1COc1nccc2cc(C(N)=O)c(OC)cc12` [ZIMLOVISERTIB], which % of inhibition [4] is on record?
**A.** -5.1%

**Q.** `Cc1cc(F)c(C(=O)Nc2cccc(-c3nncn3C(C)C)n2)cc1-n1cnc(C2CC2)c1` was tested. Which % of control [5] did it give?
**A.** 86%

**Q.** With `C=CC(=O)Nc1cc(-n2c(=O)ccc3cnc4ccc(-c5ccc(NS(C)(=O)=O)cc5)cc4c32)ccc1C` as the compound, how does the % of control ([6]; at 1 µM) read?
**A.** 100%

**Q.** And the % of control ([6]; at 10 µM)?
**A.** 100%
